Data taken from patent US20120059005A1, “COMBINATION OF (A) A PHOSPHOINOSITIDE 3-KINASE INHIBITOR AND (B) AN ANTIDIABETIC COMPOUND FOR USE IN THE TREATMENT OF PROLIFERATIVE DISEASES” (NOVARTIS AG, priority 2009, published 2012).
“Also recorded” adds a separate entry of the source. Like-named read-outs stand apart in the source and are kept apart here.

Legend:
[1] = test system: MCF-7(HER2), SK-BR-3, MDA-MB-231 and MDA-MB-468 breast cancer cells; conditions: different doses, SK-BR-3, MDA-MB-231, MDA-MB-468, triplicates
Description: (§1) MCF-7(HER2), SK-BR-3, MDA-MB-231 and MDA-MB-468 breast cancer cells are treated with different doses of 2-Methyl-2-[4-(3-methyl-2-oxo-8-quinolin-3-yl-2, 3-dihydro-imidazo[4,5-c]quinolin-1-yl)-phenyl]-propionitrile, also known as COMPOUND A, metformin or both agents in combination. Levels of phosphorylated and total AMPK, MAPK, EGFR, HER and S6 ribosomal protein are evaluated by western blot. Cell proliferation analyses are performed in triplicates using the WST-1 and crystal violet colorimetric assays.

[2] = test system: phosphorylated and total AMPK, MAPK, EGFR, HER and S6 ribosomal protein; assay: Western blot of phosphorylated and total signalling proteins in breast cancer cells; type: cell-based
Description: as §1

[3] = test system: A549 non-small cell lung tumors; assay: A549 xenograft 20-day tumor growth inhibition assay; type: in vivo, nude mice
Description: A549 human non-small cell lung cancer (NSCLC) cells are treated with different doses of the 2-Methyl-2-[4-(3-methyl-2-oxo-8-quinolin-3-yl-2,3-dihydro-imidazo[4, 5-c]quinolin-1-yl)-phenyl]-propionitrile monotosylate salt (also known as COMPOUND A) or 5-(2,6-di-morpholin-4-yl-pyrimidin-4-yl)-4-trifluoromethyl-pyridin-2-ylamine hydrochloride salt (also known as COMPOUND C), a single dose of metformin or both agents in combination. The A549 human NSCLC cells (ATCC-CCL-185, available from American Type Culture Collection, Rockville, Md. US) display characteristics of type II alveolar epithelial cells (Lieber et al, Int, J, Cancer 17(1): 62-70 [1976]), The A549 NSCLC cells are homozygous for mutations in the tumor suppressor genes, CDKN2A and STK11 (also called LKB1), and in KRAS. (Wellcome Trust Sanger Institute, Catalogue of Somatic Mutations in Cancer, Cosmic ID No, 905949, available at website http://www.sanger.ac.uk/peri/genetics/CGP/core_line_viewer?action=sample&name=A549.)
A549 tumor cells are grown in Kaighn's modified Ham's F12 medium containing 100 units/mL penicillin G sodium, 100 μg/mL streptomycin sulfate, 25 μg/mL gentamicin, […], 2 mM glutamine, and 1 mM sodium pyruvate. The cells are cultured in tissue culture flasks in a humidified incubator at 37° C., in an atmosphere of 5% CO2 and 95% air. The cells are harvested for injection into 9-week old female nu/nu (nude) mice (Harlan Laboratories, Indianapolis, Ind.) by detaching the monolayers with 2X trypsin and resuspending at 5×10^7cells/mL in cold phosphate-buffered saline containing 50% Matrigel.
0.2 mL of A549 cell suspension (1×10^7 cells) is injected subcutaneously in the right flank of 9-week old female flu/flu (nude) mice (Harlan Laboratories, Indianapolis, Ind.) having a body weight (BW) range of 19.9-27.3 g on Day 1 of the study, Tumors are callipered in two dimensions to monitor their growth as their mean volume approached 150-220 mm^3, Twenty-two days after implantation, the mice are sorted into 11 groups of eight or nine mice having individual tumor sizes of 108-221 mm^3. Tumor volume in mm^3 is determined using the formula [(width)^2×(length)][…], where width width of the tumor in mm and length=length of the tumor in mm. Tumor weight can be estimated with the assumption that 1 mg is equivalent to 1 mm^3 of tumor volume.
The 11 groups of nude mice are treated as follows. One group of nine mice serves as Controls (C or Control) for all analyses and is administered intraperitoneally (i,p,) 50 mM sodium acetate at pH 4 (Vehicle 1) and then administered by oral gavage (p.o.) a composition comprising 10% N-methylpyrrolidone: 90% polyethylene glycol 300 (PEG300) (Vehicle 2). […] Metformin is dissolved in 50 mM sodium acetate at pH 4 for dosing,
Compound A and Compound C are stored at −20° C. protected from light. Stock solutions (10X) in 100% N-methylpyrrolidone (NMP) are prepared every five days, aliquotted, and stored in the dark at room temperature. On each treatment day, stock solution aliquots are diluted with polyethylene glycol (PEG300) to provide the formulated drug (Compound A or Compound C) in 10% NMP: 90% PEG300. Dosing solutions are protected from light, and the formulated drug is administered within 1 hour after preparation.
For combination therapies, Compound A or Compound C are administered by oral gavage (p.o.) within 30 minutes after the intraperitoneal (i.p.) administration of metformin , except on Day 20 when Compound A or Compound C is given immediately after metformin.
Paclitaxel (Natural Pharmaceuticals, Inc., Beverly, Mass., USA) is administered by bolus tail-vein injections (i v) once daily on alternate days for five doses. Paclitaxel is dissolved in 50% ethanol and 50% Cremophor® EL to prepare a 10X stock solution stored at room temperature. On each day of dosing, an aliquot of the paclitaxel stock solution is diluted with 5% dextrose in water to yield a dosing solution containing 5% ethanol and 5% Cremophor®EL.

[4] = breast cancer cells, listed as metformin
[5] = Metformin 192.3 mg/kg i.p., 1x daily, Day 20
[6] = Paclitaxel 30 mg/kg i.v., 1x on alternate days for 5 doses, Day 20
[7] = Compound C 32.7 mg/kg p.o., 1x daily, Day 20
[8] = Compound C 54.4 mg/kg p.o., 1x daily, Day 20
[9] = Compound A 41.1 mg/kg p.o., 1x daily, Day 20
[10] = Compound A 68.5 mg/kg p.o., 1x daily, Day 20

`CN(C)C(=N)N=C(N)N` [Metformin, dimethyldiguanide, reference compound] was tested, and the “cell proliferation / growth inhibition” value [1] was “dose-dependent growth inhibition”, the “cell proliferation / growth inhibition” value ([1]; listed as metformin) was “inhbitor of HER2 negative breast cancer cell proliferation” and the “AMPK activation (p-AMPK)” value ([2]; breast cancer cells) was “activates AMPK”. For the same molecule, the “levels of p-S6 ribosomal protein” value ([2]; breast cancer cells) was “decreasing the levels of p-S6 ribosomal protein”, the “receptor tyrosine kinase (EGFR and HER2) expression” value ([2]; breast cancer cells) was “reduced receptor tyrosine kinase (EGFR and HER2) expression” and the “AMPK activation (p-AMPK)” value [2, 4] was “activates p-AMPK”. For the same molecule, the “p-MAPK / MAPK phosphorylation” value [2, 4] was “reduces p-MAPK; also recorded: decreased p-MAPK”, the “MARK pathway transactivation induced by COMPOUND A” value ([2]; metformin together with COMPOUND A) was “counteracts” and the “Mean Tumor Vol. Change” value [3, 5] was 221 mm^3. For the same molecule, the Regression [3, 5] was “None”, the “activity in the 20-day tumor growth inhibition assay” value ([3]; metformin monotherapy at 192.3 mg/kg) was “did not appear active” and the T/C ([3]; mouse, in vivo) was 69% (ns).

In the case of `CC(=O)O[C@H]1C(=O)[C@@]2(C)[C@H]([C@H](OC(=O)c3ccccc3)[C@]3(O)C[C@H](OC(=O)[C@H](O)[C@@H](NC(=O)c4ccccc4)c4ccccc4)C(C)=C1C3(C)C)[C@]1(OC(C)=O)CO[C@@H]1C[C@@H]2O` [Paclitaxel, reference compound], the “Mean Tumor Vol. Change” value [3, 6] is reported as 9 mm^3, the Regression [3, 6] is reported as “None” and the T/C [3, 6] is reported as 3%.

`Nc1cc(C(F)(F)F)c(-c2cc(N3CCOCC3)nc(N3CCOCC3)n2)cn1` [Compound C, 5-(2,6-di-morpholin-4-yl-pyrimidin-4-yl)-4-trifluoromethyl-pyridin-2-ylamine] was tested, and the “Mean Tumor Vol. Change” value [3, 7] was 63 mm^3, the Regression [3, 7] was “None” and the T/C [3, 7] was 20% (ns). For the same molecule, the “Mean Tumor Vol. Change” value [3, 8] was −80 mm^3, the Regression [3, 8] was “None” and the T/T0 [3, 8] was −48% (T/T0,.

For `Cn1c(=O)n(-c2ccc(C(C)(C)C#N)cc2)c2c3cc(-c4cnc5ccccc5c4)ccc3ncc21` [Compound A, 2-Methyl-2-[4-(3-methyl-2-oxo-8-quinolin-3-yl-2,3-dihydro-imidazo[4,5-c]quinolin-1-yl)-phenyl]-propionitrile], the “levels of p-S6 ribosomal protein” value ([2]; breast cancer cells) was “potently decreases”, the p-AKT ([2]; breast cancer cells) was “potently decreases” and the “p-MAPK / MAPK phosphorylation” value ([2]; breast cancer cells) was “increases MAPK phosphorylation”. The “Mean Tumor Vol. Change” value [3, 9] was 58 mm^3, the Regression [3, 9] was “None” and the T/C [3, 9] was 18% (ns). For the same molecule, the “Mean Tumor Vol. Change” value [3, 10] was −51 mm^3, the Regression [3, 10] was 3 Partial and the T/T0 [3, 10] was −31% (T/T0,.
